Experimental data as given in PMC10455239, “Antimicrobial, Cytotoxic, and α-Glucosidase Inhibitory Activities of Ethanol Extract and Chemical Constituents Isolated from Homotrigona apicalis Propolis—In Vitro and Molecular Docking Studies” (Life, 2023).
Converted amounts (≈) assume the structure as drawn. Like-named read-outs stand apart in the source and are kept apart here.

Assays:
Bacillus cereus = assay: Antimicrobial activity, broth microdilution; type: cell-based; conditions: read-out: IC50 B. cereus
Experimental: (§1) The antimicrobial activity assay was performed using the broth microdilution method. Dimethyl sulfoxide (DMSO) was used for the preparation of compound solutions at concentrations of 256 μg/mL, 64 μg/mL, 16 μg/mL, 4 μg/mL, and 1 μg/mL. Three strains of Gram-positive bacteria (Staphylococcus aureus, Bacillus cereus, and Lactobacillus fermentum); three strains of Gram-negative bacteria (Salmonella enterica, Escherichia coli, and Pseudomonas aeruginosa), and fungus Candida albicans (obtained from the American Type Culture Collection (ATCC)) were used for the test. Ampicillin, Cefotaxim, and Nystatin were used as positive controls for the Gram (+) bacterial and Gram (−) bacterial strains and C. albicans, respectively. The activity of the isolated compounds was expressed as an IC50 value (half-maximal inhibitory concentration). The IC50 values were calculated using the program […].

Candida albicans = assay: Antimicrobial activity, broth microdilution; type: cell-based; conditions: for IC50: Candida albicans, read-out: IC50 C. albicans
Experimental: as §1

Escherichia coli = assay: Antimicrobial activity, broth microdilution; type: cell-based; conditions: Escherichia coli, read-out: IC50 E. coli
Experimental: as §1

Lactobacillus fermentum = assay: Antimicrobial activity, broth microdilution; type: cell-based; conditions: read-out: IC50 L. fermentum
Experimental: as §1

Pseudomonas aeruginosa = assay: Antimicrobial activity, broth microdilution; type: cell-based; conditions: Pseudomonas aeruginosa, read-out: IC50 P. aeruginosa
Experimental: as §1

Salmonella enterica = assay: Antimicrobial activity, broth microdilution; type: cell-based; conditions: Salmonella enterica; Gram (−) strain; read-out: IC50 S. enterica
Experimental: as §1

Staphylococcus aureus = assay: Antimicrobial activity, broth microdilution; type: cell-based; conditions: read-out: IC50 S. aureus
Experimental: as §1

[1] = test system: A-549 (human lung adenocarcinoma); assay: Cytotoxicity assay (MTT); type: cell-based; conditions: read-out: IC50 A-549
Experimental: (§2) The cytotoxic assays were evaluated in triplicate against three cancer cell lines, namely KB (epidermal carcinoma), A-549 (human lung adenocarcinoma), and HepG-2 (human hepatoma) (ATCC), with a modification of the previously published method. The cells were cultured in Dulbecco’s D-MEM medium (Gibco, Life Technologies Corporation, Grand Island, NY, USA), supplemented with 10% fetal calf serum (Sigma-Aldrich, St. Loius, MO, USA), L-glutamine (2 mM) (Sigma-Aldrich, St. Loius, MO, USA), penicillin G (100 UI/mL), and streptomycin (100 μg/mL) (Sigma-Aldrich, St. Loius, MO, USA). The compound solutions were prepared in DMSO, and the cytotoxic assays were conducted in 96-well microtiter plates against the cancer cells (3 × 10^5 cells/mL concentration). After 48 h incubation at 37 °C in an air/CO2 (95:5) atmosphere, with or without isolated compounds, MTT reagent was added to each well (0.5 mg/mL). The cell growth was assessed by measuring the colorimetric of formazan at 570 nm using a microplate reader. […] Ellipticine was used as a positive reference.

HepG-2 (human hepatoma) = assay: Cytotoxicity assay (MTT); type: cell-based; conditions: read-out: IC50 Hep-G2
Experimental: as §2

KB (epidermal carcinoma) = assay: Cytotoxicity assay (MTT); type: cell-based; conditions: read-out: IC50 KB
Experimental: as §2

α-glucosidase [2] = target: T1, α-glucosidase (Saccharomyces cerevisiae, UniProt P53341); assay: biochemical
T1 construct: purchased Sigma-Aldrich G0660
T1 sequence (P53341 whole entry): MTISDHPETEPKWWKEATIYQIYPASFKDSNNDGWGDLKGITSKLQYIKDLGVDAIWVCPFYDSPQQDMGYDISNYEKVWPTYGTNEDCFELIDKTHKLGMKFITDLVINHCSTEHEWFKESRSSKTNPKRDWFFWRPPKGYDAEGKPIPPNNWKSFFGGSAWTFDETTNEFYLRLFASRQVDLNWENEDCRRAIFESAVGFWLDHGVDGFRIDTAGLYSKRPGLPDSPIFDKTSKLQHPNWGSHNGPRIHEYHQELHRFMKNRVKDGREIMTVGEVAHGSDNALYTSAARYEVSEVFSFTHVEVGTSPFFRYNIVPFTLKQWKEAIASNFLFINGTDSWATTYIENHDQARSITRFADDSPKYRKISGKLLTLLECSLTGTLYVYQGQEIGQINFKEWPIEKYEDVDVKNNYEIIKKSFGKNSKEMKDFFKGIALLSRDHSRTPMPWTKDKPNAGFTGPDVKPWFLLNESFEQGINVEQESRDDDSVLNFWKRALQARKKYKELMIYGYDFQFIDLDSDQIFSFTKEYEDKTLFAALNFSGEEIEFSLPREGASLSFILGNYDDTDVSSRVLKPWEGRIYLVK
Experimental: An assay for the α-glucosidase inhibitory activity was carried out by a modification of the published method. Briefly, solutions of α-glucosidase (Saccharomyces cerevisiae, G0660, Sigma-Aldrich, St. Louis, MO, USA) and p-nitrophenyl α-D-glucopyranoside (Sigma-Aldrich, St. Louis, MO, USA) were prepared in a phosphate buffer (100 mM, pH 6.8, Sigma-Aldrich, St. Louis, MO, USA). […] The compound solution (2 μL) and 40 µL of enzyme solution (0.5 U/mL) in 120 µL phosphate buffer were mixed. After 5 min of preincubation, 20 µL of 10 mM p-nitrophenyl α-D-glucopyranoside prepared in phosphate buffer was added, and the reaction mixture was incubated for 30 min at 37 °C. The reaction was quenched by the addition of 80 µL of 0.2 M Na2CO3. The absorbance of the released p-nitrophenol was measured at 410 nm using a Biotek reader. The % inhibition was calculated using the following equation:Inhibition (%) = [1 − (Asample/Acontrol)] ∗ 100
The IC50 values of the isolated compounds were calculated using the program Table Curve.

[3] = test system: Gram (+) bacterial strains; assay: Antibacterial activity, range over strains; type: cell-based; conditions: range over strains and compounds
Experimental: as §1

[4] = test system: KB, HepG-2, and A-549 cancer cell lines; assay: Cytotoxicity assay (MTT), range over the three cell lines; type: cell-based; conditions: range over three cell lines and both xanthones
Experimental: as §2

α-glucosidase [5] = conditions: cited from earlier work
[6] = IC50 (Table S1), Table S1, α-glucosidase
[7] = IC50 α-Glucosidase Inhibitory Activity, p-nitrophenyl α-D-glucopyranoside, pH 6.8, 37 °C

Row | Compound | IC50 (Salmonella enterica) [µg/mL] | IC50 (α-glucosidase [2]; [6]) [µM] | IC50 (α-glucosidase [2]; [7]) [µM] | IC50 (Bacillus cereus; Gram (+) strain) [µg/mL] | IC50 (Candida albicans; Fungus) [µg/mL] | IC50 (Escherichia coli; Gram (−) strain) [µg/mL] | IC50 (Lactobacillus fermentum; Gram (+) strain) [µg/mL] | IC50 (Pseudomonas aeruginosa; Gram (−) strain) [µg/mL] | IC50 (Staphylococcus aureus; Gram (+) strain) [µg/mL] | IC50 ([1]; A549, MTT, 48 h incubation) [µg/mL] | IC50 (HepG-2 (human hepatoma); HepG2, MTT, 48 h incubation) [µg/mL] | IC50 (KB (epidermal carcinoma); MTT, 48 h incubation) [µg/mL] | IC50 [3] [µg/mL] | other results
1 | CC(=O)O[C@H]1CC[C@]2(C)[C@H]3CC=C4[C@@H]5CC(C)(C)CC[C@]5(C(=O)O)CC[C@@]4(C)[C@]3(C)CC[C@H]2C1(C)C [Compound 5, acetyl oleanolic acid] | > 256 | 16.9 | 16.9 |  |  |  |  |  |  |  |  |  |  | IC50 (Bacillus cereus): > 256 µg/mL; IC50 (Candida albicans): > 256 µg/mL; IC50 (Escherichia coli): > 256 µg/mL; IC50 (Lactobacillus fermentum): 49.9 ± 1.06 µg/mL (≈ 100 µM); IC50 (Pseudomonas aeruginosa): > 256 µg/mL; IC50 (Staphylococcus aureus): > 256 µg/mL; IC50 ([1]; A549, 48 h): > 128 µg/mL; IC50 (HepG-2 (human hepatoma); HepG2, 48 h): > 128 µg/mL; IC50 (KB (epidermal carcinoma); 48 h): > 128 µg/mL
2 | CC(C)=CCC[C@H](C(=O)O)[C@@H]1CC[C@]2(C)C3=C(CC[C@@]12C)[C@@]1(C)CC[C@@H](O)C(C)(C)[C@@H]1CC3 [Compound 6, 3α-hydroxytirucalla-8,24-dien-21-oic acid] | > 256 | > 561 | > 561 |  |  |  |  |  |  |  |  |  |  | IC50 (Bacillus cereus): 141 ± 4.14 µg/mL (≈ 308 µM); IC50 (Candida albicans): > 256 µg/mL; IC50 (Escherichia coli): > 256 µg/mL; IC50 (Lactobacillus fermentum): 62.2 ± 1.24 µg/mL (≈ 136 µM); IC50 (Pseudomonas aeruginosa): > 256 µg/mL; IC50 (Staphylococcus aureus): > 256 µg/mL; IC50 ([1]; A549, 48 h): 78.6 ± 7.69 µg/mL (≈ 172 µM); IC50 (HepG-2 (human hepatoma); HepG2, 48 h): 77.7 ± 8.09 µg/mL (≈ 170 µM); IC50 (KB (epidermal carcinoma); 48 h): 49.3 ± 5.21 µg/mL (≈ 108 µM)
3 | C[C@H]1[C@H](C)CC[C@]2(C(=O)O)CC[C@]3(C)C(=CC[C@@H]4[C@@]5(C)CC[C@H](O)C(C)(C)[C@@H]5CC[C@]43C)[C@H]12 [Compound 7, ursolic acid] | > 256 |  |  | 10.2 ± 0.67 (≈ 22.3 µM) | > 256 | > 256 | 10.6 ± 0.7 (≈ 23.2 µM) | > 256 | 7.1 ± 0.25 (≈ 15.5 µM) | > 128 | > 128 | > 128 | 0.56 to 17.3 (≈ 1.23 to 37.9 µM) | 
4 | CC(C)=CCC/C(C)=C/Cc1c(O)c(CC=C(C)C)c(O)c2c(=O)c3cc(O)ccc3oc12 [Compound 8, cochinchinone A] | > 256 |  |  | 7.99 ± 0.33 (≈ 17.8 µM) | 65.3 ± 3.54 (≈ 146 µM) | > 256 | 8.67 ± 0.38 (≈ 19.3 µM) | 35.4 ± 2.03 (≈ 79 µM) | 17.3 ± 0.87 (≈ 38.6 µM) | 20.3 ± 1.34 (≈ 45.3 µM) | 17.4 ± 1.03 (≈ 38.7 µM) | 29.3 ± 2.07 (≈ 65.3 µM) | 0.56 to 17.3 (≈ 1.25 to 38.6 µM) | IC50 (α-glucosidase [2]; Table S1, α-glucosidase, read-out: IC50 (Table S1) (converted)): 20.2 µM; IC50 [4]: 7.55 to 29.3 µg/mL (≈ 16.8 to 65.3 µM)
5 | COc1c(O)cc2oc3cc(O)c(CC=C(C)C)c(O)c3c(=O)c2c1CC=C(C)C [Compound 9, α-mangostin] | 16.3 ± 0.78 (≈ 39.8 µM) | 4.63 | 4.63 | 0.57 ± 0.07 (≈ 1.39 µM) | 0.56 ± 0.06 (≈ 1.36 µM) | 7.89 ± 0.34 (≈ 19.2 µM) | 0.56 ± 0.09 (≈ 1.36 µM) | 1.22 ± 0.09 (≈ 2.97 µM) | 0.54 ± 0.07 (≈ 1.32 µM) | 7.55 ± 0.25 (≈ 18.4 µM) | 12.9 ± 0.68 (≈ 31.4 µM) | 9.28 ± 0.58 (≈ 22.6 µM) | 0.56 to 17.3 (≈ 1.36 to 42.2 µM) | IC50 (α-glucosidase [2]; IC50 α-glucosidase, equivalent in μM, converted from μg/mL): 4.63 ± 0.24 µM; IC50 [4]: 7.55 to 29.3 µg/mL (≈ 18.4 to 71.3 µM); IC50 (α-glucosidase [5]; ref 59 (Nam K. Nguyen et al.)): 11.4 ± 2.3 µM; IC50 (α-glucosidase [5]; ref 60 (H. W. Ryu et al.)): 5 ± 0.1 µM
6 | Cc1c2ccncc2c(C)c2c1[nH]c1ccccc12 [Ellipticine, reference compound] |  |  |  |  |  |  |  |  |  | 0.34 ± 0.02 (≈ 1.38 µM) | 0.5 ± 0.03 (≈ 2.03 µM) | 0.48 ± 0.03 (≈ 1.95 µM) |  | 
7 | C[C@@H]1[C@H](O)[C@@H](C)/C=C/C=C/CC/C=C/C=C/C=C/C=C/C(O[C@H]2O[C@H](C)[C@@H](O)[C@H](N)[C@@H]2O)CC2O[C@](O)(CC(O)C(O)CCC(O)CC(O)CC(O)CC(=O)O[C@H]1C)CC(O)C2C(=O)O (stereo partly drawn) [N, Nystatin, reference compound] |  |  |  |  |  |  |  |  |  |  |  |  |  | IC50 C. albicans (Candida albicans; Fungus): 1.32 ± 0.05 µg/mL (≈ 1.43 µM)
